Source: patent US11208404B2 (PERENNA PHARMACEUTICALS, INC., priority 2017, dated 2021)
Values joined by “and” are separate entries in the source; they are usually repeats but may differ in a detail not shown here. Equal entries are not always repeated.

Target: ALCAT1 (Homo sapiens (Human), UniProt Q6UWP7)
Test: In vitro acyltransferase assay for ALCAT1 inhibitors
Type: biochemical
Settings: for % inh @ 1 μM / inhibition at 1 µM: 1 μM compound; for % inh @ 1 μM / inhibition at 1 µM / % inh @ 10 μM / inhibition at 10 µM: in vitro enzymatic assay; for % inh @ 10 μM / inhibition at 10 µM: 10 μM compound; for IC50: ALCAT1 enzyme activity, triplicates, GraphPad, read-out: IC50
Text: The human ALCAT1 protein were expressed in Spodoptera frugiperda (Sf9) insect cells by using a Bac-to-Bac baculovirus expression system (Invitrogen) according to the manufacturer's instruction. High-titer recombinant baculovirus expressing the human ALCAT1 protein was generated by several rounds of viral amplification. The Sf9 cells were typically infected with recombinant baculovirus for 3 days, harvested in ice-cold phosphate-buffered saline (PBS), and homogenized in 20 mm NaCl by going through French press. The total cell lysates were centrifuged at 10,000×g for 1 hours at 4° C. to eliminate the nucleus fraction, followed by ultracentrifugation at 100,000×g to pallet the membrane fraction. The membrane fraction was resuspended in enzymatic buffer that contain 10% glycerol, quantified for protein concentration, aliquoted, and stored at −80° C.
ALCAT1 enzymatic activity was determined by measuring the conversion of monolysocardiolipin (MLCL) to cardiolipin or lysophosphatidylglycerol (LPG) to phosphatidylglycerol (PG) in an enzymatic reaction mixture that contained 50 mm Tris/HCl, pH 7.0, 100 μm lysophospholipids, 25 μm [^14C]acyl-CoA (50 mCi/mmol, American Radiolabeled Chemicals, Inc), and membrane fraction (0.5-2.5 μg) in a total volume of 200 μl. The reaction was incubated at room temperature for 30 min. The lipids were extracted will chloroform, dried, and separated by thin layer chromatography (TLC) with chloroform:hexane:methanol:acetic acid (50:30:10:5, v/v) or chloroform:methanol:water (65:25:4, v/v). After separation, TLC plates were exposed to a Phosphorlmager screen to visualize the radiolabeled products with a Molecular Dynamics Typhoon Scanner (Sunnyvale, Calif.). In some experiments, NBD-CoA was used at 100 μM to replace the [^14C]acyl-CoA in the enzymatic reaction. All quantitative data were expressed as mean±S.E. Statistical analyses for differences between two groups were carried out using a Student's t test.
Compound inhibitors for ALCAT1 enzyme were analyzed by an in vitro enzymatic assay as detailed above. Compound inhibitors were added to the enzymatic mixture at 1-20 μM concentrations before the start of the acyltransferase reaction.
Where multiple measurements were taken this is indicated by a “/” between multiple values.
IC50 values for each compound were analyzed in triplicates, and calculated by GraphPad software.

Sequence of ALCAT1 (Q6UWP7 whole entry): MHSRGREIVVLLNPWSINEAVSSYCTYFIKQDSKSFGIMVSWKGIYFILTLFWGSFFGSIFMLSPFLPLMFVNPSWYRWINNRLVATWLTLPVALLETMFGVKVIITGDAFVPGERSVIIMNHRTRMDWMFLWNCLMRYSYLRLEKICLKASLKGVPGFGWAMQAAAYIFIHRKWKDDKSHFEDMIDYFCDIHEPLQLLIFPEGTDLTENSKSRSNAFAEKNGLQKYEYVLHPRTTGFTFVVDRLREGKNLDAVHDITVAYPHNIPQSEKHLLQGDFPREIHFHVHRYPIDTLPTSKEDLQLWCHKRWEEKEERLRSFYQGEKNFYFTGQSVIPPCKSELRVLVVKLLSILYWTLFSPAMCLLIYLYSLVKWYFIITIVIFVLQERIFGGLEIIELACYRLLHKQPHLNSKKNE

SMILES: O=C(Nc1cccc(-c2nnc(-c3ccco3)o2)c1)c1ccccc1F [Compound 1]
- % inh @ 1 μM: 63%
- inhibition at 1 µM: 59%
- % inh @ 10 μM: 48% and 49% and 79%
- IC50: 0.21 µM

SMILES: O=C(Nc1cccc(-c2nnc(-c3ccco3)o2)c1)c1ccccc1Br [Compound 5]
- inhibition at 10 µM: 39%
- IC50: 4.1 µM

SMILES: O=C(Nc1cccc(-c2nnc(-c3ccco3)o2)c1)c1ccccc1C(F)(F)F [Compound 7]
- inhibition at 10 µM: 3%

SMILES: O=C(Nc1cccc(-c2nnc(-c3ccco3)o2)c1)c1ccccc1C(F)F [Compound 9]
- inhibition at 1 µM: 47%
- inhibition at 10 µM: 87%

SMILES: O=C(Nc1cccc(-c2nnc(-c3ccco3)o2)c1)c1ccc(C(F)F)cc1 [Compound 10]
- inhibition at 10 µM: 2%

SMILES: O=C(O)c1ccccc1C(=O)Nc1cccc(-c2nnc(-c3ccco3)o2)c1 [Compound 11]
- inhibition at 10 µM: 9%

SMILES: O=C(Nc1cccc(-c2nnc(-c3cccs3)o2)c1)c1ccccc1F [Compound 15, 2-fluoro-N-(3-(5-(thiophen-2-yl)-1,3,4-oxadiazol-2-yl)phenyl)benzamide]
- inhibition at 1 µM: 20%

SMILES: O=C(Nc1cccc(-c2nnc(-c3ccc[nH]3)o2)c1)c1ccccc1F [Compound 16]
- % inh @ 1 μM: 58% and 85%

SMILES: O=C(Nc1cccc(-c2nnc(-c3ccc(Br)o3)o2)c1)c1ccccc1F [Compound 18]
- inhibition at 10 µM: 2%

SMILES: Cc1ccc(-c2nnc(-c3cccc(NC(=O)c4ccccc4F)c3)o2)o1 [Compound 19]
- inhibition at 10 µM: 2%

SMILES: O=C(Nc1cccc(-c2nnc(-c3ccoc3)o2)c1)c1ccccc1F [Compound 20, 2-fluoro-N-(3-(5-(furan-3-yl)-1,3,4-oxadiazol-2-yl)phenyl)benzamide]
- inhibition at 1 µM: 13%

SMILES: O=C(Nc1cccc(-c2nnc(-c3ccsc3)o2)c1)c1ccccc1F [Compound 21]
- inhibition at 10 µM: 85%

SMILES: O=C(Nc1cccc(-c2nnc(C3CCCO3)o2)c1)c1ccccc1F (stereo not shown) [Compound 22, 2-fluoro-N-(3-(5-(tetrahydrofuran-2-yl)-1,3,4-oxadiazol-2-yl)phenyl)benzamide]
- inhibition at 1 µM: 20%
- inhibition at 10 µM: 8%

SMILES: O=C(Nc1cc(-c2nnc(-c3ccco3)o2)ccc1Cl)c1ccccc1F [Compound 23]
- inhibition at 10 µM: 89%
- IC50: 1.8 µM

SMILES: O=C(Nc1ccc(Cl)c(-c2nnc(-c3ccco3)o2)c1)c1ccccc1F [Compound 24]
- inhibition at 10 µM: 2%

SMILES: O=C(Nc1cc(-c2nnc(-c3ccco3)o2)ccc1Br)c1ccccc1F [Compound 25]
- inhibition at 10 µM: 56%

SMILES: O=C(Nc1cc(-c2nnc(-c3ccco3)o2)ccc1F)c1ccccc1F [Compound 27]
- inhibition at 10 µM: 98%
- IC50: 0.047 µM

SMILES: O=C(Nc1ccc(F)c(-c2nnc(-c3ccco3)o2)c1)c1ccccc1F [Compound 28]
- inhibition at 10 µM: 51%

SMILES: O=C(Nc1ccc(-c2nnc(-c3ccco3)o2)cc1)c1ccccc1F [Compound 35, 2-fluoro-N-(4-(5-(furan-2-yl)-1,3,4-oxadiazol-2-yl)phenyl)benzamide]
- inhibition at 1 µM: 16%
- inhibition at 10 µM: 5%

SMILES: N#Cc1ccc(C(=O)Nc2cccc(-c3nnc(-c4ccco4)o3)c2)cc1 [Compound 36]
- inhibition at 10 µM: 1%

SMILES: O=C(Nc1cccc(-c2nnc(-c3ccco3)o2)c1)c1cccnc1F [Compound 37]
- % inh @ 10 μM: 87%
- inhibition at 10 µM: 76%
- IC50: 3.9 µM

SMILES: O=C(Nc1cc(-c2nnc(-c3ccco3)o2)ccn1)c1ccccc1F [Compound 39, 2-Fluoro-N-(4-(5-(furan-2-yl)-1,3,4-oxadiazol-2-yl)pyridin-2-yl)benzamide]
- inhibition at 1 µM: 92%
- IC50: 0.093 µM

SMILES: O=C(Nc1cccc(-c2cnc(-c3ccco3)o2)c1)c1ccccc1F [Compound 40]
- IC50: 1.7 µM

SMILES: O=C(Nc1cccc(-c2nnc(-c3ccno3)o2)c1)c1ccccc1F [Compound 42]
- inhibition at 1 µM: 23%
- inhibition at 10 µM: 70%

SMILES: O=C(Nc1ccccc1F)c1cccc(-c2nnc(-c3ccco3)o2)c1 [Compound 44, N-(2-fluorophenyl)-3-(5-(furan-2-yl)-1,3,4-oxadiazol-2-yl)benzamide]
- inhibition at 1 µM: 26%
- IC50: 0.99 µM

SMILES: O=C(Nc1cccc(-c2nnc(-c3ccco3)o2)c1)c1ccccc1 [Compound 46]
- % inh @ 10 μM: 43% and 68% and 75%
- IC50: 3.8 µM

SMILES: O=C(Nc1cccc(-c2nnc(-c3ccco3)o2)c1)c1ccc(-c2ccccc2)cc1 [Compound 48]
- % inh @ 10 μM: 2%

SMILES: O=C(Nc1cncc(-c2nnc(-c3ccco3)o2)c1)c1ccccc1F [Compound 51]
- % inh @ 1 μM: 57%
- inhibition at 1 µM: 43%

SMILES: O=C(Nc1ccnc(-c2nnc(-c3ccco3)o2)c1)c1ccccc1F [Compound 52]
- inhibition at 1 µM: 59%
- IC50: 0.75 µM

SMILES: O=C(Nc1cccc(-c2nnc(-c3ccco3)o2)n1)c1ccccc1F [Compound 53]
- inhibition at 1 µM: 47%
- inhibition at 10 µM: 90%

SMILES: COc1ccccc1C(=O)Nc1cccc(-c2nnc(-c3ccco3)o2)c1 [Compound 55]
- inhibition at 1 µM: 81%
- inhibition at 10 µM: 100%
- IC50: 0.13 µM

SMILES: N#Cc1ccccc1C(=O)Nc1cccc(-c2nnc(-c3ccco3)o2)c1 [Compound 56]
- inhibition at 10 µM: 2%

SMILES: Cc1cccc(C(=O)Nc2cccc(-c3nnc(-c4ccco4)o3)c2)c1 [Compound 57]
- % inh @ 10 μM: 89% and 94%
- inhibition at 10 µM: 75%
- IC50: 2.8 µM

SMILES: COc1cccc(C(=O)Nc2cccc(-c3nnc(-c4ccco4)o3)c2)c1 [Compound 58]
- inhibition at 10 µM: 45%
- IC50: 2.4 µM

SMILES: O=C(Nc1cccc(-c2nnc(-c3ccco3)o2)c1)c1cccc(Cl)c1 [Compound 59]
- IC50: 2 µM

SMILES: O=C(Nc1cccc(-c2nnc(-c3ccco3)o2)c1)c1cccc(O)c1 [Compound 62]
- inhibition at 1 µM: 2%
- inhibition at 10 µM: 11%

SMILES: O=C(Nc1cccc(-c2nnc(-c3ccco3)o2)c1)c1ccccc1O [Compound 64]
- inhibition at 1 µM: 15%
- inhibition at 10 µM: 55%

SMILES: O=C(Nc1cccc(-c2nnc(-c3ccco3)o2)c1)c1cccc(OCc2ccccc2)c1 [Compound 71]
- inhibition at 1 µM: 51%
- inhibition at 10 µM: 93%

SMILES: O=C(Nc1cccc(-c2nnc(-c3ccco3)o2)c1)c1ccc(Br)cc1F [Compound 73]
- inhibition at 1 µM: 15%
- inhibition at 10 µM: 66%

SMILES: O=C(Nc1cccc(-c2nnc(-c3ccco3)o2)c1)c1ccc(-c2ccccc2)cc1F [Compound 74]
- inhibition at 1 µM: 4%
- inhibition at 10 µM: 21%

SMILES: COC(=O)c1ccccc1C(=O)Nc1cccc(-c2nnc(-c3ccco3)o2)c1 [Compound 75]
- inhibition at 1 µM: 16%
- inhibition at 10 µM: 36%

SMILES: Nc1ccccc1C(=O)Nc1cccc(-c2nnc(-c3ccco3)o2)c1 [Compound 77]
- inhibition at 1 µM: 37%
- inhibition at 10 µM: 21%

SMILES: Cc1c(NC(=O)c2ccccc2F)cccc1-c1nnc(-c2ccco2)o1 [Compound 78]
- % inh @ 1 μM: 59%
- inhibition at 1 µM: 42%

SMILES: O=C(Nc1cccc(-c2nnc(-c3ccco3)o2)c1F)c1ccccc1F [Compound 79, 2-fluoro-N-(2-fluoro-3-(5-(furan-2-yl)-1,3,4-oxadiazol-2-yl)phenyl)benzamide]
- inhibition at 1 µM: 89%
- IC50: 0.11 µM

SMILES: O=C(Nc1cc(-c2nnc(-c3ccc(Cl)o3)o2)c(F)cc1F)c1ccccc1F [Compound 80]
- inhibition at 1 µM: 22%

SMILES: Cc1ccc(NC(=O)c2ccccc2F)cc1-c1nnc(-c2ccco2)o1 [Compound 81]
- % inh @ 1 μM: 36%
- inhibition at 1 µM: 20%

SMILES: O=C(Nc1cccc(-c2nnc(-c3ccc(Cl)o3)o2)n1)c1ccccc1F [Compound 82]
- inhibition at 1 µM: 23%
- inhibition at 10 µM: 3%

SMILES: O=C(Nc1cccc(-c2nnc(-c3ccco3)o2)c1)c1ccccc1I [Compound 83]
- inhibition at 1 µM: 36%
- inhibition at 10 µM: 43%

SMILES: O=C(Nc1cccc(-c2nnc(-c3ccco3)o2)c1)c1ccc(I)cc1 [Compound 84]
- inhibition at 1 µM: 5%

SMILES: O=C(Nc1cccc(-c2nnc(-c3ccco3)o2)c1)c1ccc([N+](=O)[O-])cc1 [Compound 85]
- inhibition at 1 µM: 10%
- inhibition at 10 µM: 3%

SMILES: O=C(Nc1cccc(-c2nnc(-c3ccco3)o2)c1)c1cccc([N+](=O)[O-])c1 [Compound 87]
- inhibition at 1 µM: 29%
- inhibition at 10 µM: 62%

SMILES: O=C(Nc1cccc(-c2nnc(-c3ccco3)o2)c1)C1CCCCC1 [Compound 98]
- inhibition at 1 µM: 11%
- inhibition at 10 µM: 2%

SMILES: O=C(Nc1cccc(-c2nnc(-c3ccco3)o2)c1)c1ccco1 [Compound 100]
- inhibition at 1 µM: 3%
- inhibition at 10 µM: 7%

SMILES: COc1ccc(I)cc1C(=O)Nc1cccc(-c2nnc(-c3ccco3)o2)c1 [Compound 113]
- inhibition at 1 µM: 96%
- inhibition at 10 µM: 94%
- IC50: 0.11 µM

SMILES: COc1ccc(C(=O)O)cc1C(=O)Nc1cccc(-c2nnc(-c3ccco3)o2)c1 [Compound 114]
- inhibition at 1 µM: 36%
- inhibition at 10 µM: 48%
